# According to patent US20010047016A1, “Method for treating depression” (priority 2000, published 2001):
# Tests used:
# [1] = test system: C57BL/6J mice; experiment: tail suspension test in C57BL/6J mice; assay type: in vivo
# Method: The tail suspension test is a variant of the “behavioral despair” forced swimming test in which immobility is induced by suspending an animal by the tail (Steru et al., 1985). […] C57BL/6 mice ([…] 21-25g) were housed, ten per cage, in light controlled chambers (12 hr. light/12 hr. dark cycle-lights on at 08.00 hr., off at 20.00 hr.) with free access to food and water. Each animal was tested in a chamber made out of white non-transparent plastics. The C57BL/6J mice are suitable animals for such a study since no enzymes of melatonin biosynthesis have been found in the pineal glands of this strain of mice (Ebihara et al., 1986). Therefore, the observed effects could not be attributed to melatonin. The chamber was 17 cm W×25 cm H×15 cm D with a hook (4 cm) attached to the center of the ceiling. There was no front wall to allow for the observation of the mouse behavior. The mouse was hung on a hook by an adhesive tape placed 15 mm from the extremity of its tail. The animal was positioned with its stomach towards the investigator to assure the observation of the total immobility. The distance between the floor of the chamber and the nose of the animal was 10 cm. Immobility was scored as a sum of the time periods during which the animal hung passively and motionless for at least 2 sec. The total period of observation was 6 min. Experiments were conducted between 10.00 hr. and 14.00 hr. in a quiet room. The source of the light (50 W fluorescent bulb) was positioned 2 m above the experimental chamber. Baseline, control experiments were conducted several days before the actual experiments. Only those animals whose cumulative duration of immobility during the 6 min. observation was no less than 100 sec. were selected for further experiments. Three animals were tested simultaneously. Each experimental group was composed of at least nine animals. […] Nifedipine was injected in a dose (5 mg/kg, i.p.) which, by itself, has no effect on the duration of immobility ([…] and Oxenkrug, 1998). […] Results were expressed as mean±S.D. (sec.) and statistically treated by ANOVA and Student t-test.
# [2] = test system: mouse; details: mouse tail suspension test; cited from earlier work
# [3] = biological target: T1, MT-3 melatonin sites of hamster brain (Mesocricetus auratus, UniProt A0ABM2YAB8); details: cited from earlier work
# T1 construct: MT-3 melatonin sites of hamster brain; host or cells: hamster brain
# T1 sequence (A0ABM2YAB8 1-231): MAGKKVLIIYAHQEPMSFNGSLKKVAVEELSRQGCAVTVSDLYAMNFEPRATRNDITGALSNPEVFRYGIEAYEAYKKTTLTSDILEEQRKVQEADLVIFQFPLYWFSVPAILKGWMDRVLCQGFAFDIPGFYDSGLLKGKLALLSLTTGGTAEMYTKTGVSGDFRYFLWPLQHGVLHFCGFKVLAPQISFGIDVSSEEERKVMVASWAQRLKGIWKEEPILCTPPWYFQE
# [4] = test system: other melatonin receptors; details: cited from earlier work
smiles,measurement,setting,value
"COc1cc2nc(N3CCN(C(=O)c4ccco4)CC3)nc(N)c2cc1OC [Prazocin, reference compound]",duration of immobility,[1]; prazocin 0.5 mg/kg alone,did not affect the duration of immobility
same,effect on decrease of immobility induced by 5-MCA-NAT,[1]; prazocin 0.5 mg/kg injected 15 min before 5-MCA-NAT 50 mg/kg,prevented decrease of immobility
"COc1ccc2[nH]cc(CCNC(C)=O)c2c1 [Melatonin, N-acetyl-5-methoxytryptamine]",antidepressant-like activity,[2],antidepressant-like activity
"COC(=O)Nc1ccc2[nH]cc(CCNC(C)=O)c2c1 [5-MCA-NAT, 5-methoxy-carbonylamino-N-acetyltryptamine]",duration of immobility,"[1]; 5-MCA-NAT 10 mg/kg i.p., 30 min before testing, 6 min observation",did not affect the duration of immobility
same,duration of immobility,"[1]; 5-MCA-NAT 25 mg/kg i.p., 30 min before testing, 6 min observation",decreased the duration of immobility
same,duration of immobility,"[1]; 5-MCA-NAT 50 mg/kg i.p., 30 min before testing, 6 min observation",decreased the duration of immobility
same,duration of immobility,[1]; combination: 5-MCA-NAT 10 mg/kg i.p. with nifedipine 5 mg/kg i.p. injected 15 min after,decreased the duration of immobility
same,affinity for MT-3 melatonin sites,[3],high affinity
same,affinity or efficacy for other melatonin receptors,[4],low affinity or efficacy
